What all share (assay): Fluo-4 AM calcium flux in HEK293T cells
For orientation: Calcium assays in cells follow changes in intracellular calcium, usually with a dye or a luminescent sensor.

The test system of assay [1] is T1, CcIav/CcNan heterotetramer.
T1 construct: gene iav; full-length ORFs co-expressed in HEK293T cells from pcDNA3.1-mCherry-P2A; 2:2 heterotetramer
Format: cell-based, Cacopsylla chinensis. Conditions: agonist; 2:2 CcIav/CcNan.

Assay [2] has as its system T2, HaIav/HaNan heterotetramer.
T2 construct: gene iav; ORFs co-expressed in HEK293T cells; 2:2 heterotetramer
Format: cell-based, Harmonia axyridis. Conditions: agonist; 2:2 molar ratio Iav/Nan.

Assay [3] concerns T3, DcIav/DcNan heterotetramer.
T3 construct: gene iav; ORFs co-expressed in HEK293T cells; 2:2 heterotetramer
Format: cell-based, Diaphorina citri. The settings on record: agonist; 2:2 molar ratio Iav/Nan.

Assay [4] has as its target T4, BdIav/BdNan heterotetramer (Bactrocera dorsalis, UniProt A0A8N4L2W2+A0ABM3JT49).
T4 construct: gene LOC105228865; ORFs co-expressed in HEK293T cells; 2:2 heterotetramer
T4 sequence (A0ABM3JT49 1-1159): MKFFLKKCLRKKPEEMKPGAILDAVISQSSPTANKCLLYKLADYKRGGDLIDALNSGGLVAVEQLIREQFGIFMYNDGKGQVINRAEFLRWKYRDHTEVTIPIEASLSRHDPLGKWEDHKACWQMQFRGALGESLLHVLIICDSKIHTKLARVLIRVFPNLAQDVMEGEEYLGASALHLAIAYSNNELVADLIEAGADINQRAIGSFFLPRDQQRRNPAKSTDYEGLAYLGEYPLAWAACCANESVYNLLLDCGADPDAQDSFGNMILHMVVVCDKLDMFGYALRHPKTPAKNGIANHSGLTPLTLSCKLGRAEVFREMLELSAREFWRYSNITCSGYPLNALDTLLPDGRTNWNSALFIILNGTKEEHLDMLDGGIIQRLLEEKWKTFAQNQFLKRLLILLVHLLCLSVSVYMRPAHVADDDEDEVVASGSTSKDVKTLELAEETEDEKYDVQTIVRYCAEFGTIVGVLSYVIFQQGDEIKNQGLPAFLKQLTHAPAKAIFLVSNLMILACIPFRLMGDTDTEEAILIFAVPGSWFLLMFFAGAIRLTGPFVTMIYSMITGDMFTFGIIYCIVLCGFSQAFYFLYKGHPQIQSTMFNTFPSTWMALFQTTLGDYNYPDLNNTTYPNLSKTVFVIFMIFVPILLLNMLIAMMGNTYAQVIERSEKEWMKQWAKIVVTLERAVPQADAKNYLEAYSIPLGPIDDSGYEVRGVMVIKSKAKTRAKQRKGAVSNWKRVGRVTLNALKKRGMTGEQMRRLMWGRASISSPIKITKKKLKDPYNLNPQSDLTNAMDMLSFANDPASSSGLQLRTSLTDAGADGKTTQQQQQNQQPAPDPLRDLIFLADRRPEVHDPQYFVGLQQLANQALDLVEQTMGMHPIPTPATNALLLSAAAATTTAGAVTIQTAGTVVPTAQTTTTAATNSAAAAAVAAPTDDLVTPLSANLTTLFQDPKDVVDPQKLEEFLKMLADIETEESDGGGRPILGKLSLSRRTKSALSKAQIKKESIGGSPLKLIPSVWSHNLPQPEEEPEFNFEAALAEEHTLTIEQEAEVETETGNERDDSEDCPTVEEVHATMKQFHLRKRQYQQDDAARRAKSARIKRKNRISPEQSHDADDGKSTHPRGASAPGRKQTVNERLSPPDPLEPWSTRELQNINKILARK
T4 sequence (A0A8N4L2W2 1-846): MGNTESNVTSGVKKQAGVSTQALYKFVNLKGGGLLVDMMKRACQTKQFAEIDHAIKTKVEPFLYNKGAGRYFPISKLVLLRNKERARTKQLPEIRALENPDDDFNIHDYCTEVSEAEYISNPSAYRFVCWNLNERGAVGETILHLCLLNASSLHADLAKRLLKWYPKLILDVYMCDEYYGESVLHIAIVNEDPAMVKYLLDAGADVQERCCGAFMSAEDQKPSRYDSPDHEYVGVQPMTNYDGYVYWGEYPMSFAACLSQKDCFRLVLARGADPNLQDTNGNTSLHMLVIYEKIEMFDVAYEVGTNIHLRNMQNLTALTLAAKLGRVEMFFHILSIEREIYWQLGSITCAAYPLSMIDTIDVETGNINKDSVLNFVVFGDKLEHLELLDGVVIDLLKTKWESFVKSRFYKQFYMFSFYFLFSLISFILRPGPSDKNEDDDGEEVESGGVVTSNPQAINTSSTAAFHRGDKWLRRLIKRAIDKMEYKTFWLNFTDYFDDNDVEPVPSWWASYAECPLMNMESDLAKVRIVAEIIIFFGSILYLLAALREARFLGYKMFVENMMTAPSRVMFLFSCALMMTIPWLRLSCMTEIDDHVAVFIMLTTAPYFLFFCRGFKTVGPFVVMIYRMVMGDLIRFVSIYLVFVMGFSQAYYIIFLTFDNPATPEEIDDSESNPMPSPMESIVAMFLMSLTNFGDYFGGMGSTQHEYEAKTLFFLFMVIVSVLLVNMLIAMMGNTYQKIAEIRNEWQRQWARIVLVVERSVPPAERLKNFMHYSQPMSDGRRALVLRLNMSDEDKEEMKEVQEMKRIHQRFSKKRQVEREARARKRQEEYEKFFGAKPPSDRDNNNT
It is filed as cell-based.

Each structure is given as a SMILES string. pEC50: −log10 of the molar value.

The pEC50 is the EC50 on a negative log10 scale, so that one unit is a factor of ten. Turning to `COc1cc(CNC(=O)CCCC/C=C/C(C)C)ccc1O` [capsaicin], the pEC50 in assay [1] is 7.65; in assay [2], 4.62; in assay [3], 4.24; in assay [4], 4.61.

(Values after paper PMC12677633, “Thermosensory TRPV Heterotetramers Drive Seasonal Polyphenism: Molecular Basis of CcIav/CcNan‐PKCα‐AKH/AKHR Signaling in Pear Psyllid Morph Transition” (Advanced Science, 2025).)
